Laboratory results as given in patent publication US7423068B2, “Control of parasitic mites of honey bees” (The United States of America as represented by the …, priority 2001, dated 2008).
Several values for one entry are separate records, joined by “and”; a condition that tells them apart may be missing. Identical values can stand only once. Marks after values point to notes of the source that are not given here.

Experiments:
[1] = tested on: free-running adult mites
Experimental: 2-Heptanone was tested for miticidal activity in two separate sets of bioassays. In the petri dish bioassays we exposed free-running adult mites to volatiles from 2-heptanone either in pure form or in an acrylic block dispenser (as described in a further experiment, below) and measured mortality over time. Mites were placed in petri dishes (5-10 mites/dish, 4 dishes per treatment and 4 dishes for controls) that were lined on the bottom with damp tissue paper covered with Parafilm®. Holes were punched in the Parafilm® using an insect pin to create a humid environment in the petri dish. A piece of filter paper the same size as the petri dish was placed on top of the Parafilm® sheet. In the first petri dish bioassay, 40 μl of pure 2-heptanone was placed on a piece of filter paper on the lid of the petri dish (treatment dishes). The Control dishes were set up as described above but nothing was added to the piece of filter paper fastened to the lid of the petri dish. The petri dishes were placed in separate incubators for treatments and Controls. Incubator temperatures were maintained at 33-34.4° C. […] In the second bioassay 0.1 g of a 30% concentration of 2-heptanone in acrylic block made as in Example 6 was placed in a plastic weighing boat in the center of petri dishes prepared as described above. Control petri dishes were prepared identically to those containing the acrylic block, but the weighing boat in the center of the dish was empty.
In another series of tests, 2-heptanone, 98+% (Sigrma-Aldrich); 3-heptanone (Fluka Chemika); 4-heptanone (Fluka Chemika); 2-hexanone; 2-octanone, 98% (Aldrich Chemical Co.); 1-heptanol (Fluka Chemika, 99.5% GC), and heptaldehyde, 95% (Aldrich Chemical Co.) were tested in petri dish bioassays wherein free-running adult mites were exposed to 40 μl of pure compound placed on filter paper as described above. The test conditions and Controls were as described above.
The test conditions and Controls were as described above.

[2] = tested on: honey bee (Apis mellifera L.) colony; experiment: Maximum levels of 2-heptanone without negatively impacting bee behavior (observation hive); type: in vivo; settings: pure 2-heptanone up to 500 μL on filter paper (2700 ppm v/v or 0.27%), queenless two-frame hive, 23° C.
Experimental: A test was conducted with 2-heptanone in pure form to determine its effects on honey bee (Apis mellifera L.) colony behavior and ascertain if there was a maximum dose of 2 heptanone that could induce a colony to leave their hive. Two full sized frames were taken from a colony in our local apiary and placed inside a two-frame observation hive having a total volume of 8565 cm^3.These two frames contained adult worker bees only and were queenless. A 2-day period when no testing occurred was included to allow for colony adjustment to the new dwellings. The observation hive was set up inside a greenhouse with a 2.5 cm tube connected from the side of the observation hive to the side wall of the greenhouse. This tube served as an exit and entrance for the workers.
We fastened a strip of filter paper measuring 7.6 cm by 2.5 cm to the top inside frame of the observation colony with a thumbtack and applied an initial 100 μL of pure 2-heptanone to the filter paper and observed worker behavior. Subsequent applications of 40 μL of 2-heptanone were applied every 4 minutes with observations of worker behavior documented. Ambient temperature at the time of the observations was 23° C. […]
Our experiment ended when 500 μL of pure 2-heptanone was the total amount on our filter paper. Concentration of 500 μL of 2-heptanone in the two-frame observation hive was calculated to be 2700 ppm v/v or 0.27%.

[3] = tested on: honey bee (Apis mellifera L.) colony; experiment: Influence of 2-heptanone on honey bee colony behavior (two-frame observation hive); type: in vivo
Experimental: Tests were conducted with 2-heptanone in pure form and in a 30% concentration in acrylic block made as in Example 6 to determine its effects on the honey bee (Apis mellifera L.) colony behavior. A two-frame observation hive (the hive had one frame on the bottom with adult worker bees and brood and a top frame with adult worker bees and honey) with a laying queen was used for the study. […] Within 4 hours the 2-heptanone had evaporated, and the bees returned to the frame, and the fanning stopped.
To test the effects of 2-heptanone in acrylic blocks, we again conducted studies using two frame observation hives arranged as described above. For one week prior to inserting the acrylic blocks, we measured queen ovipositions, and the number of workers bees leaving the hive per 5-minute interval in four observation colonies. We also counted the number of workers in a court surrounding the queen once during the 5-minute interval. We then added one acrylic block dispenser with a surface area of 8.04 cm^2 containing a 30% concentration of 2-heptanone. […] The latter served as Controls.

[4] = tested on: mites; experiment: Minimum Level Treatment Effectiveness petri dish bioassay; type: in vivo; settings: for # of Dead Mites/Total Mites: 17.5 hours exposure
Experimental: Determination of the minimum amount of 2-heptanone effective in mite mortality in our bioassay was performed according to the following procedure: 3 Kimwipes® were placed on the bottom of petri dishes and slightly moistened with water using a disposable 1 ml pipette. A cut section of Parafilm® M was placed over the moistened Kimwipes® and stretched up and over the outer edge of the petri dish bottom. […] A single Whatman® Filter paper (9.0 cm) was placed on top of the pierced Parafilm® area and pushed down to create space between the filter paper and the petri dish lid. Six to eight mites and two bee larvae were placed on top of the filter paper in each petri dish. A small strip of filter paper was taped to the inside top of each petri dish. Four groups of two petri dishes were labeled according to the type of treatment. The treatments were: 1 μL 2-heptanone; 5 μL 2-heptanone; 10 μL 2-heptanone; and Control (no treatment). All eight dishes were then placed in incubators set to maintain a temperature of 33-34.4° C. Our results were as follows:
In our second bioassay, the same protocol was applied; however we sought to investigate if lower amounts of 2-heptanone could be as effective. In this trial, amounts of 0.5 and 1 μL of 2-heptanone were used. After 17.5 hours exposure to 2-heptanone, our results were as follows: […]

[5] = filter paper with 40 μl of pure 2-heptanone

Which “% of the mites dead” value ([1]; 0.1 g of 30% 2-heptanone in acrylic block, 4 hrs., controls 6%) does the source give for `CCCCCC(C)=O` [2-Heptanone] here?
The value was 90%.

What about the “time until all the mites were dead” value ([1]; 40 μl pure 2-heptanone on filter paper, 33-34.4° C., controls 0% mortality) of the same molecule?
Its value is “less than 2 hrs”.

What about the “bees exiting the observation hive” value [2] of the same molecule?
Its value is “At no time however, did all bees fully or permanently exit the observation hive”.

What about the “immediate effect on the bees on the frames” value ([3]; acrylic block 8.04 cm^2, 30% 2-heptanone) of the same molecule?
The value was “no immediate effect on the bees on the frames”.

And the “Ovipositions, Post-Treatment” value ([3]; acrylic block 8.04 cm^2, 30% 2-heptanone, average per 5-minute interval, pretreatment 5.3)?
The value was 5.3.

What about the “Workers in court, Post-Treatment” value ([3]; acrylic block 8.04 cm^2, 30% 2-heptanone, average per 5-minute interval, pretreatment 10.2) of the same molecule?
The value was 10.2.

And the “Foragers leaving, Post-Treatment” value ([3]; acrylic block 8.04 cm^2, 30% 2-heptanone, average per 5-minute interval, pretreatment 16.1, significantly different p = 0.05)?
Its value is 23.6*.

What about the “bee behavior after placing 2-heptanone in observation colony” value [3, 5] of the same molecule?
The value was “all the bees moved off of the frame and began to fan”.

And the “time until 2-heptanone evaporated, bees returned to the frame and fanning stopped” value [3, 5]?
Its value is ≤ 4 h.

What about the “# of Dead Mites/Total Mites” value ([4]; 0.5 μL 2-heptanone, per dish) of the same molecule?
Its value is 1/6 and 1/5 and 2/6 and 0/5.

What about the “# of Dead Mites/Total Mites” value ([4]; 1 μL 2-heptanone, per dish) of the same molecule?
Its value is 3/6 and 0/5 and 1/4 and 1/5.

And the “% Mortality 25.5 hours” value ([4]; 1 μL 2-heptanone, per dish)?
Its value is 50% and 66%.

And the “% Mortality 40.5 hours” value ([4]; 1 μL 2-heptanone, per dish)?
Its value is 50% and 66%.

And the “% Mortality 40.5 hours” value ([4]; 5 μL 2-heptanone, per dish)?
Its value is 100% and 68%.

And the “% Mortality 17.5 hours” value ([4]; 10 μL 2-heptanone, per dish)?
Its value is 66% and 40%.

What about the “% Mortality 25.5 hours” value ([4]; 10 μL 2-heptanone, per dish) of the same molecule?
The value was 66% and 50%.

What about the “% Mortality 40.5 hours” value ([4]; 10 μL 2-heptanone, per dish) of the same molecule?
Its value is 66% and 60%.

What about the “action on the mites at higher concentrations” value ([4]; mites inanimate at 1 hour, active again as 2-heptanone evaporated) of the same molecule?
Its value is “knockdown action”.

And the “minimum amount of 2-heptanone that will cause mite mortality” value ([4]; petri dish)?
Its value is 1 µL.
